# Test results: patent US20250236616A1, “IMMUNOMODULATING AZALIDES” (Zoetis Services LLC, priority 2021, published 2025)
# Entries after “also recorded” stand apart in the source; their conditions may differ.
# Columns and labels:
# CD163 = CD163 expression by flow cytometry, cattle; assay type: in vivo, bovine; details: monocytes/macrophages of whole blood
# Protocol: CD163 Expression by Flow Cytometry-Fresh whole bovine blood samples were collected into EDTA vacutainer tubes, placed on ice and processed within two hours of collection. Blood was placed in 96 well round bottom plates at 30 μL per well, 5 μL of goat serum was added as a blocking reagent and the plate was rocked at 4° C. for approximately 15 minutes. To label cells, 10 μL of a master mix panel of antibodies including anti-CD14 (BioLegend #301854), anti-CD172a (BioRad #MCA2041C), anti-CD163 (Kingfisher #WSC0832B-100) and anti-CD16 (BioRad #MCA5665F), was added to the samples and returned to 4° C. (protected from light) for 30 minutes. Single stain controls were included for use in fluorescence compensation matrices. Red blood cells were removed by adding 200 μL of lysis buffer and incubating for 10 minutes at room temperature while rocking. The plate was then centrifuged at 270×g for three minutes and supernatant removed. This step was repeated until supernatant was clear. 200 μL of FACS buffer was added to each well to wash cells, centrifuged as above, resuspended in 80 μL of FACS buffer and read immediately on a digital FACS Canto II HTS (BD Bioscience) flow cytometer. Data was analyzed using FlowJo software (BD Bioscience). Macrophage subpopulations were determined using CD172, CD14, CD16 markers and assessed for expression of CD163. […]
# P. multocida = assay: Murine P. multocida intranasal challenge study, treatment 18 hours after challenge, survival; assay type: in vivo, mice; details: subcutaneous 18 hours after challenge (5×10^3 CFU/mouse); tulathromycin 16 mg/kg, M9 32 mg/kg, ceftiofur 9 mg/kg
# Protocol: In one murine P. multocida intranasal challenge study, mice were administered tulathromycin (16 mg/kg; T02), M9 (32 mg/kg; T03), or ceftiofur (9 mg/kg; T04) by subcutaneous injection 18 hours after bacterial challenge (5×10^3 CFU/mouse) for lung tissue RNA sequence analysis. Survival at Day 7 was about 80%, 50%, and 90% for T02, T03, and T04, respectively, compared to placebo at 0%. Differential gene expression from total lung tissue RNA sequence analysis indicated at least 226 unique genes were up or down regulated (with significance) for T03. Output from ingenuity pathway analysis of these unique genes predicted major upstream regulators of the involved pathways. Data was analyzed based on the number of genes being modulated in the same direction that were associated with a given upstream regulator. An activation z-score of 2 or greater is considered significant and the direction change is indicated by + (activated) or -(inhibited). The top 5 pathways included: IL-9 signaling, glucocorticoid receptor signaling, prolactin signaling, JAK STAT signaling, and IL-17 signaling. The top 6 upstream regulators (activation z-score) included: lipopolysaccharide (−6.725), TNF (−4.669), IFNγ (−5.759), IL-1β (−5.947), STAT1 (−2.787), and poly rl: rC-RNA (−5.289). Even though this study was run in the murine model, the top upstream regulators identified as being modulated by M9 include an almost ubiquitous overlap with the pathways identified in the natural disease study as being key mediators in BRD, and therefore is modulating highly relevant pathways in BRD pathobiology.
smiles,measurement,setting,value
"CCCNC[C@]1(O)[C@H](C)O[C@@H](O[C@H]2[C@H](C)[C@@H](O[C@@H]3O[C@H](C)C[C@H](NC)[C@H]3O)[C@](C)(O)C[C@@H](C)CN[C@H](C)[C@@H](O)[C@](C)(O)[C@@H](CC)OC(=O)[C@@H]2C)C[C@@]1(C)OC [Example M9, (2R,3S,4R,5R,8R,10R,11R,12S,13S,14R)-2-ethyl-3,4, 10-trihydroxy-13-(((2R,4R,5S,6S)-5-hydroxy-4-methoxy-4,6-dimethyl-5-((propylamino)methyl)-tetrahydro-2H-pyran-2-yl)oxy)-11-(((2S,3R,4S,6R)-3-hydroxy-6-methyl-4-(methylamino)tetrahydro-2H-pyran-2-yl)oxy)-3,5,8,10,12,14-hexamethyl-1-oxa-6-azacyclopentadecan-15-one]",CD163 expression,CD163,suppressed; also recorded: mitigates the pathologic increase in CD163 expression
same,Survival at Day 7,P. multocida,~50%
